System: DLD1 cells
Assay: Effect of anti-cancer drug on cellular acidity (AO red fluorescence, flow cytometry) and cell growth
Assay type: cell-based, human
Conditions: DLD1 versus NCl/Adr cells at a given dose; AO red fluorescence after 6 hours exposure; growth 3 days after addition of drug, hemacytometer and trypan blue exclusion; FIG. 5
Method: Cells plated at 25% confluency were exposed to various doses of the drug for 6 hours and stained with AO (1 μg/ml, final concentration) for 30 minutes. Cells were washed 3× with PBS to remove residual stain, trypsinized to obtain a liquid suspension and assessed on a flow cytometer (FACSCalibur, Becton Dickinson San Jose Calif.). The red fluorescence of AO emanating from the cells was recorded on a linear scale in the cytometer's FL2 channel (emission filter >600 nm). A total of 30K cells were collected for post acquisition analysis with WinMDI Version 2.8 software (The Scripps Research Institute, La Jolla, Calif.). […] FIG. 5b plots the geometric mean of AO red fluorescence channel intensity against drug concentration for both DLD1 and NCl/Adr cells. In parallel cultures, cells were assessed for growth 3 days after the addition of drug (FIG. 5 c) —cells were enumerated with a hemacytometer and trypan blue exclusion staining.

CC(=O)O[C@H]1C(=O)[C@@]2(C)[C@H]([C@H](OC(=O)c3ccccc3)[C@]3(O)C[C@H](OC(=O)[C@H](O)[C@@H](NC(=O)c4ccccc4)c4ccccc4)C(C)=C1C3(C)C)[C@]1(OC(C)=O)CO[C@@H]1C[C@@H]2O [paclitaxel]
sensitivity of cancer cells to the drug (cell growth, reflected by acidic content of cells): DLD1 cells are more sensitive to paclitaxel than NCl/Adr

Reference: patent publication US20120040394A1, “MICROTUMOURS” (priority 2008, published 2012)
